In US9227971B2, “Pyrazolo[1,5-a]pyrimidine compounds as mTOR inhibitors” (Merck Sharp & Dohme Corp., priority 2010, dated 2016):
Like-named read-outs stand apart in the source and are kept apart here.

How the values were obtained:
[1] = tested on: phosphorylated 4E-BP1 Thr37/46 (p4E-BP1 Thr37/46), mTORC1 activity, PC3 cells; assay: mTOR target engagement assay, immunofluorescent cell-based, p4E-BP1 Thr37/46 readout (mTORC1 activity); settings: read-out: p4E-BP1 Thr37/46 IC50
In short: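 Cell-based immunofluorescence in PC3 cells: serially diluted compounds (0.25% DMSO, 5% FBS) applied for ninety minutes at 37° C before fixation and overnight 4° C staining of p4E-BP1 Thr37/46. Untreated DMSO wells set maximal phosphorylation; IC50 obtained by logistic fitting.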

[2] = tested on: phosphorylated AKT Ser473 (pAKT S473), mTORC2 activity, PC3 cells; assay: mTOR target engagement assay, immunofluorescent cell-based, pAKT S473 readout (mTORC2 activity)
In short: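 After blocking, cells were stained overnight at 4 °C with anti-pAKT S473 antibody, then a fluorescent secondary; inhibition was read as reduced fluorescence intensity.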

[3] = Homo sapiens, PC-3, Table 3-1, PC3 cells
[4] = Homo sapiens, PC-3, PC3 cells, compound treatment ninety minutes at 37° C.
[5] = Homo sapiens, PC-3, Table 6-1, PC3 cells

Row | Structure (SMILES) | IC50 [1, 3] | IC50 [2, 3] | IC50 [1, 4] | IC50 [2, 4] | other results
1 | Cc1cnc(-c2ccc(-c3cnn4c(N)c(S(C)(=O)=O)c([C@@H]5C[C@H]6CC[C@@H](C5)N6C(=O)CO)nc34)cn2)s1 [Compound 3.185, 1-((1R,3a,5S)-3-(7-amino-6-(methylsulfonyl)-3-(6-(5-methylthiazol-2-yl)pyridin-3-yl)pyrazolo[1,5-a]pyrimidin-5-yl)-8-azabicyclo[3.2.1]octan-8-yl)-2-hydroxyethanone] | 100 to 1000 nM | 100 to 1000 nM | – | – | –
2 | CC(=O)c1c([C@@H]2C[C@H]3CC[C@@H](C2)N3C(=O)c2nc[nH]n2)nc2c(-c3ccc(C(C)O)cc3)cnn2c1N (stereo partly drawn) [Compound 7.20, 1-(5-((1R,3s,5S)-8-(1H-1,2,4-triazole-3-carbonyl)-8-azabicyclo[3.2.1]octan-3-yl)-7-amino-3-(4-(1-hydroxyethyl)phenyl)pyrazolo[1,5-a]pyrimidin-6-yl)ethanone] | – | – | 1 to 100 nM | 1 to 100 nM | –
3 | CC(=O)c1c([C@@H]2C[C@H]3CC[C@@H](C2)N3C(=O)CO)nc2c(-c3ccc(-c4ccc(F)cc4)nc3)cnn2c1N [Compound 1.1.159, 1-((1R,3s,5S)-3-(6-acetyl-7-amino-3-(6-(4-fluorophenyl)pyridin-3-yl)pyrazolo[1,5-a]pyrimidin-5-yl)-8-azabicyclo[3.2.1]octan-8-yl)-2-hydroxyethanone] | – | – | 100 to 1000 nM | 100 to 1000 nM | –
4 | Nc1c(CO)c([C@@H]2C[C@H]3CC[C@@H](C2)N3C(=O)c2nnc[nH]2)nc2c(-c3ccc(-c4ccccc4)nc3)cnn12 [Compound 5.7, ((1R,3s,5S)-3-(7-amino-6-(hydroxymethyl)-3-(6-phenylpyridin-3-yl)pyrazolo[1,5-a]pyrimidin-5-yl)-8-azabicyclo[3.2.1]octan-8-yl)(4H-1,2,4-triazol-3-yl)methanone] | – | – | 1 to 100 nM | 1 to 100 nM | –
5 | CC(=O)c1c([C@@H]2C[C@H]3CC[C@@H](C2)N3C(=O)CO)nc2c(-c3ccc(C4(O)CCC4)nc3)cnn2c1N [Compound 7.18, 1-((1R,3s,5S)-3-(6-acetyl-7-amino-3-(6-(1-hydroxycyclobutyl)pyridin-3-yl)pyrazolo[1,5-a]pyrimidin-5-yl)-8-azabicyclo[3.2.1]octan-8-yl)-2-hydroxyethanone] | – | – | 100 to 1000 nM | 100 to 1000 nM | –
6 | CS(=O)(=O)c1c([C@@H]2C[C@H]3CC[C@@H](C2)N3C(=O)c2nnc[nH]2)nc2c(-c3ccc(C(N)=O)c(F)c3)cnn2c1N [Compound 3.155, 4-(5-((1R,3s,5S)-8-(4H-1,2,4-triazole-3-carbonyl)-8-azabicyclo[3.2.1]octan-3-yl)-7-amino-6-(methylsulfonyl)pyrazolo[1,5-a]pyrimidin-3-yl)-2-fluorobenzamide] | 1000 to 10000 nM | > 10000 nM | – | – | –
7 | CC(=O)c1c([C@@H]2C[C@H]3CC[C@@H](C2)N3C(=O)C(C)(CO)CO)nc2c(-c3ccc(-c4ccn(C)n4)nc3)cnn2c1N [Compound 1.1.56, 1-((1R,3s,5S)-3-(6-acetyl-7-amino-3-(6-(1-methyl-1H-pyrazol-3-yl)pyridin-3-yl)pyrazolo[1,5-a]pyrimidin-5-yl)-8-azabicyclo[3.2.1]octan-8-yl)-3-hydroxy-2-(hydroxymethyl)-2-methylpropan-1-one] | – | – | 100 to 1000 nM | 100 to 1000 nM | –
8 | COc1ccc(-c2ccc(-c3cnn4c(N)c(S(C)(=O)=O)c([C@@H]5C[C@H]6CC[C@@H](C5)N6C(=O)c5nnc[nH]5)nc34)cn2)s1 [Compound 3.35, ((1R,3s,5S)-3-(7-amino-3-(6-(5-methoxythiophen-2-yl)pyridin-3-yl)-6-(methylsulfonyl)pyrazolo[1,5-a]pyrimidin-5-yl)-8-azabicyclo[3.2.1]octan-8-yl)(4H-1,2,4-triazol-3-yl)methanone] | 1 to 100 nM | 1 to 100 nM | – | – | –
9 | Nc1cc([C@@H]2C[C@H]3CC[C@@H](C2)N3C(=O)c2nnc[nH]2)nc2c(-c3cnc4[nH]ccc4c3)cnn12 [Compound 2.13, ((1R,3s,5S)-3-(7-amino-3-(1H-pyrrolo[2,3-b]pyridin-5-yl)pyrazolo[1,5-a]pyrimidin-5-yl)-8-azabicyclo[3.2.1]octan-8-yl)(1H-1,2,4-triazol-5-yl)methanone] | – | – | 1000 to 10000 nM | 1000 to 10000 nM | –
10 | CS(=O)(=O)c1c([C@@H]2C[C@H]3CC[C@@H](C2)N3C(=O)c2cccc(=O)[nH]2)nc2c(-c3ccc(-c4ccccc4)nc3)cnn2c1N [Compound 3.140, 6-((1R,3s,5S)-3-(7-amino-6-(methylsulfonyl)-3-(6-phenylpyridin-3-yl)pyrazolo[1,5-a]pyrimidin-5-yl)-8-azabicyclo[3.2.1]octane-8-carbonyl)pyridin-2(1H)-one] | 100 to 1000 nM | 1 to 100 nM | – | – | –
11 | CC(=O)c1c([C@@H]2C[C@H]3CC[C@@H](C2)N3C(=O)c2nnc[nH]2)nc2c(-c3cnc(-c4ccccc4)c(O)c3)cnn2c1N [Compound 1.1.31, 1-(5-((1R,3s,5S)-8-(4H-1,2,4-triazole-3-carbonyl)-8-azabicyclo[3.2.1]octan-3-yl)-7-amino-3-(5-hydroxy-6-phenylpyridin-3-yl)pyrazolo[1,5-a]pyrimidin-6-yl)ethanone] | – | – | 1000 to 10000 nM | 1000 to 10000 nM | –
12 | COc1ccc(-c2ccc(-c3cnn4c(N)c(S(C)(=O)=O)c([C@@H]5C[C@H]6CC[C@@H](C5)N6C(=O)c5nnc[nH]5)nc34)cn2)cc1OC [Compound 3.39, ((1R,3s,5S)-3-(7-amino-3-(6-(3,4-dimethoxyphenyl)pyridin-3-yl)-6-(methylsulfonyl)pyrazolo[1,5-a]pyrimidin-5-yl)-8-azabicyclo[3.2.1]octan-8-yl)(4H-1,2,4-triazol-3-yl)methanone] | 100 to 1000 nM | 100 to 1000 nM | – | – | –
13 | CS(=O)(=O)c1c([C@@H]2C[C@H]3CC[C@@H](C2)N3C(=O)[C@H]2CCCN2)nc2c(-c3ccc(-c4ccccc4)nc3)cnn2c1N [Compound 3.205] | 100 to 1000 nM | 100 to 1000 nM | – | – | –
14 | Nc1c(Br)c([C@@H]2C[C@H]3CC[C@@H](C2)N3C(=O)c2nc[nH]n2)nc2c(-c3ccc(-c4ccccc4)nc3)cnn12 [Compound 2.1, ((1R,3s,5S)-3-(7-amino-6-bromo-3-(6-phenylpyridin-3-yl)pyrazolo[1,5-a]pyrimidin-5-yl)-8-azabicyclo[3.2.1]octan-8-yl)(1H-1,2,4-triazol-3-yl)methanone] | – | – | 1 to 100 nM | 100 to 1000 nM | –
15 | CC(=O)c1c([C@@H]2C[C@H]3CC[C@@H](C2)N3C(=O)c2nnc[nH]2)nc2c(-c3ccc(-c4ncc[nH]4)cc3)cnn2c1N [Compound 6.43, 1-(3-(4-(1H-imidazol-2-yl)phenyl)-5-((1R,3s,5S)-8-(4H-1,2,4-triazole-3-carbonyl)-8-azabicyclo[3.2.1]octan-3-yl)-7-aminopyrazolo[1,5-a]pyrimidin-6-yl)ethanone] | – | – | – | – | IC50 [1, 5]: 1 to 100 nM; IC50 [2, 5]: 1 to 100 nM
16 | CC(=O)c1c([C@@H]2C[C@H]3CC[C@@H](C2)N3C(=O)c2cc[nH]n2)nc2c(-c3ccc(C(O)C(F)(F)F)nc3)cnn2c1N (stereo partly drawn) [Compound 7.66, 1-(5-((1R,3s,5S)-8-(1H-pyrazole-3-carbonyl)-8-azabicyclo[3.2.1]octan-3-yl)-7-amino-3-(6-(2,2,2-trifluoro-1-hydroxyethyl)pyridin-3-yl)pyrazolo[1,5-a]pyrimidin-6-yl)ethanone] | – | – | – | – | IC50 ([1]; Homo sapiens, PC-3, PC3 cells): 100 to 1000 nM; IC50 ([2]; Homo sapiens, PC-3, PC3 cells): 1000 to 10000 nM
17 | CC(=O)c1c([C@@H]2C[C@H]3CC[C@@H](C2)N3C(=O)c2nnc[nH]2)nc2c(-c3ccc(-c4cc(F)cc(F)c4)nc3)cnn2c1N [Compound 1.1.100, 1-(5-((1R,3r,5S)-8-(4H-1,2,4-triazole-3-carbonyl)-8-azabicyclo[3.2.1]octan-3-yl)-7-amino-3-(6-(3,5-difluorophenyl)pyridin-3-yl)pyrazolo[1,5-a]pyrimidin-6-yl)ethanone] | – | – | 100 to 1000 nM | 100 to 1000 nM | –
18 | CS(=O)(=O)c1c([C@@H]2C[C@H]3CC[C@@H](C2)N3C(=O)c2nnc[nH]2)nc2c(-c3ccc(-c4ccncc4)nc3)cnn2c1N [Compound 3.64, ((1R,3s,5S)-3-(3-(2,4′-bipyridin-5-yl)-7-amino-6-(methylsulfonyl)pyrazolo[1,5-a]pyrimidin-5-yl)-8-azabicyclo[3.2.1]octan-8-yl)(4H-1,2,4-triazol-3-yl)methanone] | – | – | – | – | IC50 ([1]; Table 3-1, PC3 cells): 1000 to 10000 nM; IC50 ([2]; Table 3-1, PC3 cells): 1000 to 10000 nM
19 | Cn1cc(-c2cnn3c(N)c(S(C)(=O)=O)c([C@@H]4C[C@H]5CC[C@@H](C4)N5C(=O)CO)nc23)cn1 [Compound 3.112, 1-((1R,3s,5S)-3-(7-amino-3-(1-methyl-1H-pyrazol-4-yl)-6-(methylsulfonyl)pyrazolo[1,5-a]pyrimidin-5-yl)-8-azabicyclo[3.2.1]octan-8-yl)-2-hydroxyethanone] | 1000 to 10000 nM | > 10000 nM | – | – | –
20 | CS(=O)(=O)c1c([C@@H]2C[C@H]3CC[C@@H](C2)N3C(=O)c2nnc[nH]2)nc2c(-c3ccc(-c4nccs4)nc3)cnn2c1N [Compound 3.24, ((1R,3s,5S)-3-(7-amino-6-(methylsulfonyl)-3-(6-(thiazol-2-yl)pyridin-3-yl)pyrazolo[1,5-a]pyrimidin-5-yl)-8-azabicyclo[3.2.1]octan-8-yl)(4H-1,2,4-triazol-3-yl)methanone] | 1 to 100 nM | 1 to 100 nM | – | – | –
